Measurements taken from ChEMBL document CHEMBL4118260, “Structure-based drug design to overcome species differences in kallikrein 7 inhibition of 1,3,6-trisubstituted 1,4-diazepan-7-ones” (Bioorg Med Chem, 2018).

biological target: Kallikrein-7 (Mus musculus) (UniProt Q91VE3); experiment: Inhibition of mouse KLK7 at 30 uM using MOCAcArg-Pro-Lys-Pro-Val-Glu-Nva-Trp-Arg-Lys(Dnp)-NH2 as substrate preincubated for 10 mins followed by substrate addition measured after 30 mins by fluorescence assay relative to control
Sequence (Q91VE3 whole entry): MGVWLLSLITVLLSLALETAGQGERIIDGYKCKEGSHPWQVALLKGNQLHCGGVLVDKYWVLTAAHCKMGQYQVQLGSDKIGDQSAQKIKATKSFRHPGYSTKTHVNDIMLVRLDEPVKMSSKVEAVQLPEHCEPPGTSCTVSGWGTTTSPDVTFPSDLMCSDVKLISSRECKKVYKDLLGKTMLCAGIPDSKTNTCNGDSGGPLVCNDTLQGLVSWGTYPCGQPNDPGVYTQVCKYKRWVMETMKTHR

SMILES | inhibition
COc1ccc(Cl)cc1C[C@@H]1CN/C(=N\N(C)C)CN(CC(=O)Nc2cccc(C(=O)O)c2)C1=O | 11%
COc1ccccc1C[C@@H]1CN/C(=N\N(C)C)CN(CC(=O)Nc2cccc(-c3cnn(C)c3)c2)C1=O | 41%
CN(C)/N=C1/CN(CC(=O)Nc2cccc(-c3cnn(C)c3)c2)C(=O)C(Cc2ccccc2C#N)CN1 (racemic) | 22%
COc1ccc(Cl)cc1C[C@@H]1CN/C(=N\N(C)C)CN([C@@H](C)C(=O)Nc2cccc(-c3cnn(C)c3)c2)C1=O | 32%
COc1ccc(Cl)cc1C[C@@H]1CN/C(=N\N(C)C)CN(CC(=O)Nc2cccc(-c3cnn(C)c3)c2)C1=O | -1.2%
COc1cc(Cl)ccc1CC1CN/C(=N\N(C)C)CN(CC(=O)Nc2cccc(-c3cnn(C)c3)c2)C1=O (racemic) | -4.1%
COc1cccc(Cl)c1CC1CN/C(=N\N(C)C)CN(CC(=O)Nc2cccc(-c3cnn(C)c3)c2)C1=O (racemic) | 67%
CN(C)/N=C1/CN(CC(=O)Nc2cccc(-c3cnn(C)c3)c2)C(=O)C(Cc2ccccc2Cl)CN1 (racemic) | 59%

biological target: Kallikrein-7 (Homo sapiens, UniProt P49862); experiment: Inhibition of recombinant human C-terminal His10-tagged KLK7 (E23 to H252 residues) using MOCAcArg-Pro-Lys-Pro-Val-Glu-Nva-Trp-Arg-Lys(Dnp)-NH2 as substrate preincubated for 10 mins followed by substrate addition measured after 30 mins by fluorescence assay
Sequence (P49862 whole entry, the tested form may be a part): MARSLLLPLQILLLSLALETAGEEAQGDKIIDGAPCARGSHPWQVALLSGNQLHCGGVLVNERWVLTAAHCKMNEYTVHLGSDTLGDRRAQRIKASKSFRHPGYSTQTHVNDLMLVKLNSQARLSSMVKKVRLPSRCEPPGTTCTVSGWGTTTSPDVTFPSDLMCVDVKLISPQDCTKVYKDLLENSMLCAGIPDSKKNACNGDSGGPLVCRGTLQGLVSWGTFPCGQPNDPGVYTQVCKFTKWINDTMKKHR

SMILES | IC50
COc1cccc(F)c1CC1CN/C(=N\N(C)C)CN(CC(=O)Nc2cccc(-c3cnn(C)c3)c2)C1=O (racemic) | 6.8 µM
CN(C)/N=C1/CN(CC(=O)Nc2cccc(-c3cnn(C)c3)c2)C(=O)C(Cc2c(Cl)cccc2Cl)CN1 (racemic) | 0.79 µM
COc1ccccc1C[C@@H]1CN/C(=N\N(C)C)CN(CC(=O)Nc2cccc(-c3cnn(C)c3)c2)C1=O | 2.4 µM
Cc1cccc(F)c1CC1CN/C(=N\N(C)C)CN(CC(=O)Nc2cccc(-c3cnn(C)c3)c2)C1=O (racemic) | 2.3 µM
CN(C)/N=C1/CN(CC(=O)Nc2cccc(-c3cnn(C)c3)c2)C(=O)C(Cc2c(Cl)cccc2Cl)CN1 (stereo in doubt; (+)-22g) | > 30 µM
CN(C)/N=C1/CN(CC(=O)Nc2cccc(-c3cnn(C)c3)c2)C(=O)C(Cc2c(F)cccc2C(F)(F)F)CN1 (racemic) | 2.7 µM
CN(C)/N=C1/CN(CC(=O)Nc2cccc(-c3cnn(C)c3)c2)C(=O)C(Cc2c(F)cccc2F)CN1 (racemic) | 6.9 µM
COc1cccc(C)c1CC1CN/C(=N\N(C)C)CN(CC(=O)Nc2cccc(-c3cnn(C)c3)c2)C1=O (racemic) | 13 µM
Cc1cccc(C#N)c1CC1CN/C(=N\N(C)C)CN(CC(=O)Nc2cccc(-c3cnn(C)c3)c2)C1=O (racemic) | 11 µM
Cc1cccc(Cl)c1CC1CN/C(=N\N(C)C)CN(CC(=O)Nc2cccc(-c3cnn(C)c3)c2)C1=O (racemic) | 1.5 µM
CN(C)/N=C1/CN(CC(=O)Nc2cccc(-c3cnn(C)c3)c2)C(=O)C(Cc2c(F)cccc2Cl)CN1 (racemic) | 0.94 µM
CN(C)/N=C1/CN(CC(=O)Nc2cccc(-c3cnn(C)c3)c2)C(=O)C(Cc2c(Cl)cccc2Cl)CN1 (single isomer, unassigned; (-)) | 0.38 µM
CN(C)/N=C1/CN(CC(=O)Nc2cccc(-c3cnn(C)c3)c2)C(=O)C(Cc2ccccc2C#N)CN1 (racemic) | 17 µM
COc1cc(Cl)ccc1CC1CN/C(=N\N(C)C)CN(CC(=O)Nc2cccc(-c3cnn(C)c3)c2)C1=O (racemic) | 7.5 µM
COc1cccc(Cl)c1CC1CN/C(=N\N(C)C)CN(CC(=O)Nc2cccc(-c3cnn(C)c3)c2)C1=O (racemic) | 11 µM
CN(C)/N=C1/CN(CC(=O)Nc2cccc(-c3cnn(C)c3)c2)C(=O)C(Cc2c(Cl)cccc2C#N)CN1 (racemic) | 11 µM
CN(C)/N=C1/CN(CC(=O)Nc2cccc(-c3cnn(C)c3)c2)C(=O)C(Cc2ccccc2Cl)CN1 (racemic) | 2.5 µM
Cc1cccc(C)c1CC1CN/C(=N\N(C)C)CN(CC(=O)Nc2cccc(-c3cnn(C)c3)c2)C1=O (racemic) | 5.2 µM

biological target: Kallikrein-7 (Mus musculus, UniProt Q91VE3); experiment: Inhibition of mouse KLK7 using MOCAcArg-Pro-Lys-Pro-Val-Glu-Nva-Trp-Arg-Lys(Dnp)-NH2 as substrate preincubated for 10 mins followed by substrate addition measured after 30 mins by fluorescence assay
Sequence (Q91VE3 whole entry): as the sequence (Q91VE3 whole entry) above

SMILES | IC50
COc1cccc(F)c1CC1CN/C(=N\N(C)C)CN(CC(=O)Nc2cccc(-c3cnn(C)c3)c2)C1=O (racemic) | > 30 µM
COc1ccc(Cl)cc1C[C@@H]1CN/C(=N\N(C)C)CN(CC(=O)Nc2cccc(C(=O)O)c2)C1=O | > 30 µM
CN(C)/N=C1/CN(CC(=O)Nc2cccc(-c3cnn(C)c3)c2)C(=O)C(Cc2c(Cl)cccc2Cl)CN1 (racemic) | 1.2 µM
COc1ccccc1C[C@@H]1CN/C(=N\N(C)C)CN(CC(=O)Nc2cccc(-c3cnn(C)c3)c2)C1=O | > 30 µM
Cc1cccc(F)c1CC1CN/C(=N\N(C)C)CN(CC(=O)Nc2cccc(-c3cnn(C)c3)c2)C1=O (racemic) | 7.7 µM
CN(C)/N=C1/CN(CC(=O)Nc2cccc(-c3cnn(C)c3)c2)C(=O)C(Cc2c(Cl)cccc2Cl)CN1 (stereo in doubt; (+)-22g) | 16 µM
CN(C)/N=C1/CN(CC(=O)Nc2cccc(-c3cnn(C)c3)c2)C(=O)C(Cc2c(F)cccc2C(F)(F)F)CN1 (racemic) | > 30 µM
CN(C)/N=C1/CN(CC(=O)Nc2cccc(-c3cnn(C)c3)c2)C(=O)C(Cc2c(F)cccc2F)CN1 (racemic) | > 30 µM
COc1cccc(C)c1CC1CN/C(=N\N(C)C)CN(CC(=O)Nc2cccc(-c3cnn(C)c3)c2)C1=O (racemic) | 19 µM
Cc1cccc(C#N)c1CC1CN/C(=N\N(C)C)CN(CC(=O)Nc2cccc(-c3cnn(C)c3)c2)C1=O (racemic) | 7.1 µM
Cc1cccc(Cl)c1CC1CN/C(=N\N(C)C)CN(CC(=O)Nc2cccc(-c3cnn(C)c3)c2)C1=O (racemic) | 1.6 µM
CN(C)/N=C1/CN(CC(=O)Nc2cccc(-c3cnn(C)c3)c2)C(=O)C(Cc2c(F)cccc2Cl)CN1 (racemic) | 6 µM
CN(C)/N=C1/CN(CC(=O)Nc2cccc(-c3cnn(C)c3)c2)C(=O)C(Cc2c(Cl)cccc2Cl)CN1 (single isomer, unassigned; (-)) | 0.7 µM
CN(C)/N=C1/CN(CC(=O)Nc2cccc(-c3cnn(C)c3)c2)C(=O)C(Cc2ccccc2C#N)CN1 (racemic) | > 30 µM
COc1ccc(Cl)cc1C[C@@H]1CN/C(=N\N(C)C)CN([C@@H](C)C(=O)Nc2cccc(-c3cnn(C)c3)c2)C1=O | > 30 µM
COc1ccc(Cl)cc1C[C@@H]1CN/C(=N\N(C)C)CN(CC(=O)Nc2cccc(-c3cnn(C)c3)c2)C1=O | > 30 µM
COc1cc(Cl)ccc1CC1CN/C(=N\N(C)C)CN(CC(=O)Nc2cccc(-c3cnn(C)c3)c2)C1=O (racemic) | > 30 µM
COc1cccc(Cl)c1CC1CN/C(=N\N(C)C)CN(CC(=O)Nc2cccc(-c3cnn(C)c3)c2)C1=O (racemic) | 14 µM
CN(C)/N=C1/CN(CC(=O)Nc2cccc(-c3cnn(C)c3)c2)C(=O)C(Cc2c(Cl)cccc2C#N)CN1 (racemic) | 7.8 µM
CN(C)/N=C1/CN(CC(=O)Nc2cccc(-c3cnn(C)c3)c2)C(=O)C(Cc2ccccc2Cl)CN1 (racemic) | 21 µM
Cc1cccc(C)c1CC1CN/C(=N\N(C)C)CN(CC(=O)Nc2cccc(-c3cnn(C)c3)c2)C1=O (racemic) | 3.8 µM
